As usually defined, the logP is a log measure of how a compound divides between an organic and an aqueous phase. A high value points to a more lipophilic compound.

Data on 12 molecules can be found in the OPERA property sets (Mansouri et al. 2018).

In the case of `CC(C)(C)NCC(O)COc1ccccc1C#N` (configuration not stated), the logP amounted to 1.6.

As for `CCN1CCCC1CNC(=O)c1cc(S(=O)(=O)CC)ccc1OC` (configuration not stated), the log partition coefficient (logP) turned out to be 1.06. On to `C=CCN1CCCC1CNC(=O)c1cc(S(N)(=O)=O)cc(OC)c1OC` (configuration not stated), for which the logP stood at 1.47.

Regarding `O=C(NCC1CCCCN1)c1cc(OCC(F)(F)F)ccc1OCC(F)(F)F` (configuration not stated), the lipophilicity (logP) is 3.78. The molecule `CN1CCN(CCCN2c3ccccc3Sc3ccccc32)CC1` returned a logP of 4.

As to `CC(C)NCC(O)COc1cccc2c1N(C(=O)c1cccnc1)CCC2` (configuration not stated), the logP was 1.63. On to `CC(C)(C)c1cc(C(O)CCC2CCNCC2)c2ccccc2n1` (configuration not stated), for which the logP was found to be 3.63. Consider `C=CCN1CCCC1CNC(=O)c1cc2nn[nH]c2cc1OC` (configuration not stated), for which the logP is 1.79. `CNC(=O)Nc1c(OCCN2CCCC2)c(OC)c2occc2c1OC`: the logP stood at 1.38.

As to `CC(=O)Oc1c(C)cc(OCC(O)CNC(C)C)c(C)c1C` (configuration not stated), the log partition coefficient (logP) came to 2.66.

In the case of `CC(C)NCCCC1(C(N)=O)c2ccccc2-c2ccccc21`, the logP came out at 3.11. `CCN1CCCC1CNC(=O)c1cc(S(=O)(=O)CC)c(N)cc1OC` (configuration not stated) came in with a logP of 1.1.
